Reference: PMC8950828 (Viruses, 2022)
Where two headings read alike, the source gives them in different places.

Assays:
in vitro [1] = conditions: human
in vitro [2] = conditions: human; remark: listed apart in the source
in vitro [3] = conditions: human; remark: listed apart in the source
in vitro [4] = conditions: human; remark: listed apart in the source
in vitro [5] = conditions: human; remark: listed apart in the source
[6] = tested on: primary human immune cells (monocytes, M1 macrophages, M2 macrophages, MdDCs and T cells); test: Orangu cell viability assay, primary human immune cells overall; conditions: all tested immune cell types, 0.5–100 nM
MERS-CoV [7] = type: cell-based, Middle East respiratory syndrome coronavirus
[8] = tested on: 5′-UTRs of HCoV-229E, MERS-CoV and SARS-CoV-2; type: cell-based, human
5′-UTR of HEV (HEVgt3c) = type: cell-based, human
M2 macrophages = conditions: human
[9] = tested on: monocyte-derived dendritic cells (MdDCs); conditions: human
HCoV-229E [10] = conditions: cited from earlier work
MERS-CoV [11] = conditions: cited from earlier work
SARS-CoV-2 [12] = conditions: cited from earlier work
HCoV-229E [13] = test: microbe, parasite or virus in culture; type: cell-based, human coronavirus 229E
MERS-CoV [14] = test: microbe, parasite or virus in culture; type: cell-based, Middle East respiratory syndrome coronavirus
SARS-CoV-2 [15] = test: microbe, parasite or virus in culture; type: cell-based
SARS-CoV-2 [16] = conditions: cited from earlier work; remark: listed apart in the source

| Compound | effect on the replication of MERS-CoV (MERS-CoV [7]) | reduction of viral replication (MERS-CoV [7]) | translation efficiency (reporter gene expression) with coronavirus 5′-UTRs [8] | translation inhibition of HEVgt3c 5′-UTR reporter (5′-UTR of HEV (HEVgt3c)) | translation inhibition of HEVgt3c-Purine (5′-UTR of HEV (HEVgt3c)) | reduction of viability (M2 macrophages) | reduction of viability [9] | effect on viability (T cells) | EC50 (HCoV-229E [10]) [nM] | EC50 (MERS-CoV [11]) [nM] | translation inhibition of destabilized variants (5′-UTR of HEV (HEVgt3c)) | also measured |
| --- | --- | --- | --- | --- | --- | --- | --- | --- | --- | --- | --- | --- |
| CONC(=O)[C@@H]1[C@H](O)[C@]2(O)c3c(OC)cc(OC)cc3O[C@]2(c2ccc(OC)cc2)[C@H]1c1ccccc1 [CR-1-30-B] | – | – | – | – | – | – | – | – | – | – | – | CC50 (in vitro [1]): > 100 nM; CC50 (in vitro [2]): > 100 nM; CC50 (in vitro [3]): > 100 nM; CC50 (in vitro [4]): > 100 nM; CC50 (in vitro [5]): > 100 nM; impact on cell viability [6]: essentially no impact on cell viability at all |
| CONC(=O)[C@H]1[C@@H](O)[C@@]2(O)c3c(OC)cc(OC)cc3O[C@@]2(c2ccc(OC)cc2)[C@@H]1c1ccccc1 [CR-1-31-B] | no significant effect | nearly undetectable levels | sensitive | translation inhibition only in the presence of a polypurine stretch | regain translation inhibition | approximately 50% | approximately 50% | not affected | 2.9 | 1.9 | – | TEER signal reduction (NHBE cells; human): ~ 25%; EC50 (SARS-CoV-2 [12]): 1.8 nM |
| COC(=O)[C@H]1[C@@H](O)[C@@]2(O)c3c(OC)cc(O[C@@H]4O[C@@H]([C@H](O)CO)CO[C@H]4OC)cc3O[C@@]2(c2ccc(OC)cc2)[C@@H]1c1ccccc1 [Silvestrol] | – | – | sensitive | either a stable hairpin substrate or a polypurine stretch is sufficient | regain translation inhibition | approximately 50% | approximately 50% | not affected | 3 | 1.3 | loss of the inhibitory effects | – |
| COc1cc2c(c(OC)n1)[C@]1(O)[C@H](O)[C@H](CN(C)C)[C@@H](c3ccccc3)[C@]1(c1ccc(C#N)cc1)O2 [Zotatifin] | no significant effect | about two orders of magnitude | sensitive | translation inhibition | regain translation inhibition | – | – | – | – | – | loss of the inhibitory effects | EC50 (HCoV-229E [13]): 3.86 nM; EC50 (HCoV-229E [13]; Human coronavirus 229E, MRC5): 3.9 nM; EC50 (MERS-CoV [14]): 4.31 nM; EC50 (MERS-CoV [14]; Middle East respiratory syndrome-related coronavirus, MRC5): 4.3 nM; EC50 (SARS-CoV-2 [15]): 41.6 nM; fold less efficient (higher EC50) than CR-1-31-B against SARS-CoV-2 (SARS-CoV-2 [15]): around 20 fold; EC50 (SARS-CoV-2 [15]; Severe acute respiratory syndrome coronavirus 2, Vero C1008): 41.6 nM; translation inhibition compared with 10 nM of silvestrol or CR-1-31-B [8]: slightly weaker; viability reduced to (human monocytes): approximately 75%; cytotoxicity (MRC-5 cells): no significant cytotoxicity; cytotoxicity by TEER (NHBE cells): no significant cytotoxicity; EC90 (SARS-CoV-2 [16]): 37 nM |
